Non-standard residues stand in square brackets, D forms with d. No end group written: not given here. βAib = beta-Aib residue; Aib = CC(C)(N)C(=O)O; βAla = NCCC(=O)O

For the first assay, the system named is Normal Kunming (KM) mice. The assay is described as follows: multiple OGTT (mOGTT): hypoglycemic duration after a single administration. Particulars: monomeric peptides, single injection at the same dose (1.126 nmol), subcutaneous. In kind it is in vivo. A digest of the protocol:
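Single administration in normal Kunming mice, followed by oral glucose loading with tail-vein glucose sampled at 0–120 min (0, 10, 20, 40, 60, 120 min). Effective duration ended once mean glucose exceeded the NaCl control group on two occasions.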
Regarding “His-βAla-Glu-Gly-Thr-Phe-Thr-Ser-Asp-Val-Ser-Cys-Tyr-Leu-Glu-Gly-Gln-Ala-Ala-Lys[N-ϵ-(N-α-oleoyl)]-Glu-Phe-Ile-Ala-Trp-Leu-Val-Arg-Gly-Arg-Gly-NH2 (HXEGTFTSDVSCYLEGQAAXEFIAWLVRGRG; beta-amino acid; oleoyl on Lys side chain; C-terminal amide; Sequence is synthesized; (2)..(2) Xaa is bAla; (20)..(20) Xaa is 26Lys[N-e-(N-a-oleoyl-L-g-glutamyl)]; (31)..(31) N-terminal) [G4 series 39]”, the “Hypoglycemic” value stood at 5 days. As for “His-aAib-Glu-Gly-Thr-Phe-Thr-Ser-Asp-Val-Ser-Cys-Tyr-Leu-Glu-Gly-Gln-Ala-Ala-Lys-Glu-Phe-Ile-Ala-Trp-Leu-Val-Arg-aAib-Arg-OH (H[Aib]EGTFTSDVSCYLEGQAAKEFIAWLVR[Aib]R-OH; also: disulfide-linked homodimer via Cys) [G7 series 52]”, the “Hypoglycemic” value turned out to be 1 days. The same measure, in the same setting: the result for “His-Ala-Glu-Gly-Thr-Phe-Thr-Ser-Asp-Val-Cys-Ser-Tyr-Leu-Glu-Gly-Gln-Ala-Ala-Lys[N-ϵ-(N-α-oleoyl)]-Glu-Phe-Ile-Ala-Trp-Leu-Val-Arg-Gly-Arg-Gly-OH (HAEGTFTSDVCSYLEGQAAXEFIAWLVRGRG; oleoyl on Lys; C-terminal acid; Sequence is synthesized; (20)..(20) Xaa is 26Lys[N-e-(N-a-oleoyl-L-g-glutamyl)]; (31)..(31) C-terminal) [G4 series 26]” reads 4 days; that for “His-aAib-Glu-Gly-Thr-Phe-Thr-Cys-Asp-Val-Ser-Ser-Tyr-Leu-Glu-Gly-Gln-Ala-Ala-Lys[N-ϵ-(N-α-oleoyl-L-γ-glutamyl)]-Glu-Phe-Ile-Ala-Trp-Leu-Val-Arg-Gly-Arg-Gly-NH2 (HXEGTFTCDVSSYLEGQAAXEFIAWLVRGRG; Aib; oleoyl-gamma-Glu on Lys; C-terminal amide; Sequence is synthesized; (2)..(2) Xaa is aAib; (20)..(20) Xaa is 26Lys[N-e-(N-a-oleoyl-L-g-glutamyl)]; (31)..(31) N-terminal) [G8 series 62]”, 5 days; that for “His-aAib-Glu-Gly-Thr-Phe-Thr-Ser-Asp-Val-Cys-Ser-Tyr-Leu-Glu-Gly-Gln-Ala-Ala-Lys[N-ϵ-(N-α-oleoyl)]-Glu-Phe-Ile-Ala-Trp-Leu-Val-Arg-Gly-Arg-Gly-NH2 (HXEGTFTSDVCSYLEGQAAXEFIAWLVRGRG; αAib; oleoyl on Lys; C-terminal amide; Sequence is synthesized; (2)..(2) Xaa is aAib; (20)..(20) Xaa is 26Lys[N-e-(N-a-oleoyl-L-g-glutamyl)]; (31)..(31) N-terminal) [G4 series 29]”, 7 days. As for “His-aAib-Glu-Gly-Thr-Phe-Thr-Ser-Asp-Val-Ser-Cys-Tyr-Leu-Glu-Gly-Gln-Ala-Ala-Lys-Glu-Phe-Ile-Ala-Trp-Leu-Val-Lys-aAib-Arg-NH2 (H[Aib]EGTFTSDVSCYLEGQAAKEFIAWLVK[Aib]R-NH2; also: disulfide-linked homodimer via Cys) [G7 series 53]”, the “Hypoglycemic” value worked out at 3 days. “His-aAib-Glu-Gly-Thr-Phe-Thr-Cys-Asp-Val-Ser-Ser-Tyr-Leu-Glu-Gly-Gln-Ala-Ala-Lys[N-ϵ-(N-α-Palmitoyl-γ-glutamyl)]-Glu-Phe-Ile-Ala-Trp-Leu-Val-Arg-Gly-Arg-Gly-OH (HXEGTFTCDVSSYLEGQAAXEFIAWLVRGRG; Aib; palmitoyl-gamma-Glu on Lys; C-terminal acid; Sequence is synthesized; (2)..(2) Xaa is aAib; (20)..(20) Xaa is 26Lys[N-e-(N-a-palmitoyl-L-g-glutamyl)]; (31)..(31) C-terminal) [G8 series 60]”: the “Hypoglycemic” value was 2 days. Same read-out and setting: the result for “His-βAib-Glu-Gly-Thr-Phe-Thr-Ser-Asp-Val-Ser-Cys-Tyr-Leu-Glu-Gly-Gln-Ala-Ala-Lys[N-ϵ-(N-α-oleoyl)]-Glu-Phe-Ile-Ala-Trp-Leu-Val-Arg-Gly-Arg-Gly-NH2 (HXEGTFTSDVSCYLEGQAAXEFIAWLVRGRG; not fully specified; beta-Aib; oleoyl on Lys side chain; C-terminal amide; Sequence is synthesized; (2)..(2) Xaa is bAib; (20)..(20) Xaa is 26Lys[N-e-(N-a-oleoyl-L-g-glutamyl)]; (31)..(31) N-terminal) [G4 series 38]” reads 6 days; that for “His-βAib-Glu-Gly-Thr-Phe-Thr-Ser-Asp-Val-Cys-Ser-Tyr-Leu-Glu-Gly-Gln-Ala-Ala-Lys-Glu-Phe-Ile-Ala-Trp-Leu-Val-Arg-βAib-Arg-NH2 (H[βAib]EGTFTSDVCSYLEGQAAKEFIAWLVR[βAib]R-NH2; also: disulfide-linked homodimer via Cys) [G2 series 16]”, 3 days. Consider “His-Ala-Glu-Gly-Thr-Phe-Thr-Ser-Asp-Val-Cys-Ser-Tyr-Leu-Glu-Gly-Gln-Ala-Ala-Lys[N-ϵ-(N-α-oleoyl-L-γ-glutamyl)]-Glu-Phe-Ile-Ala-Trp-Leu-Val-Arg-Gly-Arg-Gly-NH2 (HAEGTFTSDVCSYLEGQAAXEFIAWLVRGRG; oleoyl-γ-glutamyl on Lys; C-terminal amide; Sequence is synthesized; (20)..(20) Xaa is 26Lys[N-e-(N-a-oleoyl-L-g-glutamyl)]; (31)..(31) N-terminal) [G2 series 10]”, for which the “Hypoglycemic” value turned out to be 5 days.

The assay is the same for the next values; noted with them: single injection at the same dose (1.126 nmol), subcutaneous.
In the case of “2G4 series 32: disulfide-linked homodimer of monomer SEQ ID NO: 32 (HAEGTFTSDVSCYLEGQAAXEFIAWLVRGRG; not fully specified; disulfide-linked homodimer; Sequence is synthesized; (20)..(20) Xaa is 26Lys[N-e-(N-a-oleoyl-L-g-glutamyl)]; (31)..(31) C-terminal)”, the “Hypoglycemic duration” value worked out at 13 days. Turning to “2G4 series 26: disulfide-linked homodimer of monomer SEQ ID NO: 26 (HAEGTFTSDVCSYLEGQAAXEFIAWLVRGRG; not fully specified; disulfide-linked homodimer; Sequence is synthesized; (20)..(20) Xaa is 26Lys[N-e-(N-a-oleoyl-L-g-glutamyl)]; (31)..(31) C-terminal)”, the “Hypoglycemic duration” value is 12 days. The same measure, in the same setting: for “2G7 series 55: disulfide-linked homodimer of monomer SEQ ID NO: 55 (H[βAla]EGTFTSDVSCYLEGQAAKEFIAWLVR[βAla]R-NH2; also: disulfide-linked homodimer, disulfide at 12, other end not in the chain)” the value was 4 days.

With “2G4 series 31: disulfide-linked homodimer of monomer SEQ ID NO: 31 (HXEGTFTSDVCSYLEGQAAXEFIAWLVRGRG; not fully specified; disulfide-linked homodimer; Sequence is synthesized; (2)..(2) Xaa is bAla; (20)..(20) Xaa is 26Lys[N-e-(N-a-oleoyl-L-g-glutamyl)]; (31)..(31) N-terminal)”, the “Hypoglycemic duration” value worked out at 15 days.

Source of the values: US20240150423A1, “GLP-1 ANALOGUE-MODIFIED DIMERS WITH DIFFERENT CONFIGURATIONS, PREPARATION METHOD THEREOF, AND APPLICATION THEREOF IN TREATMENT OF TYPE II DIABETES” (Nanjing Finepeptide Biopharmaceutical Co.,Ltd, priority 2019, published 2024).
